Data from US12064399B2, “Use of cannabinoids in the treatment of epilepsy” (Jazz Pharmaceuticals Research UK Limited, priority 2015, dated 2024).

Assays:
total seizures = assay: Expanded access compassionate use program: 50% responders for total seizures, all subjects; type: in vivo, human; details: proportion of all subjects treated; 12 weeks of treatment
Experimental: The terms “50% responder” and “50% reduction in seizure” are both terms used in clinical studies. In the present application the terms define the percentage of subjects that experienced a greater than or equal to 50% reduction in the number of seizures during treatment with CBD in comparison to the number experienced during the baseline period before the CBD was administered.
Of 137 children and young adults with severe, childhood onset treatment-resistant epilepsy (TRE), fifty-one suffered from epilepsy that was characterised by focal seizures. These subjects were tested with a highly purified extract of cannabidiol (CBD) obtained from a Cannabis plant. All subjects presented with focal type seizures, often in addition to generalised seizures. The participants in the study were part of an expanded access compassionate use program for CBD.
All patients entered a baseline period of 4 weeks when parents/caregivers kept prospective seizure diaries, noting all countable seizure types.
The patients then received a highly purified CBD extract (greater than 98% CBD w/w) in sesame oil, of known and constant composition, at a dose of 5 mg/kg/day in addition to their baseline anti-epileptic drug (AED) regimen.

[1] = system: focal seizures without impairment; assay: Expanded access compassionate use program: 50% responders for focal seizures without impairment; type: in vivo, human; details: proportion of patients; 12 weeks of treatment
[2] = system: focal seizures leading to secondary generalisation; assay: Expanded access compassionate use program: 50% responders for focal seizures leading to secondary generalisation; type: in vivo, human; details: proportion of patients; 12 weeks of treatment
absence seizures = assay: Patients with greater than 50% reduction of absence seizures under CBD; type: in vivo, human; details: treatment with CBD
[3] = system: myoclonic absence seizures; assay: Patients with greater than 50% reduction of myoclonic absence seizures under CBD; type: in vivo, human; details: treatment with CBD
[4] = Solubility of the drug substance in water; type: physicochemical
seizures [5] = details: mice; after administration of pro-convulsant drugs or an electric current; cited from earlier work
generalized epilepsy = details: of eight adult patients with generalized epilepsy; cited from earlier work
seizures [6] = details: 200 mg/day of pure CBD; four adult patients; cited from earlier work
seizures [7] = details: 200 mg day of pure CBD; twelve institutionalized adult patients; open label; cited from earlier work
refractory epilepsy = details: Press et al.; parental reporting; cited from earlier work
seizures [8] = details: Consroe et al., 1977; cited from earlier work

SMILES	<50% reduction in seizures, Total seizures (n = 137) (total seizures)	<50% reduction in seizures, Focal Seizures without Impairment (n = 6) [1] [%]	>50% reduction in seizures, Focal Seizures without Impairment (n = 6) [1] [%]	<50% reduction in seizures, Focal Seizures Leading to Secondary Generalised (n = 15) [2] [%]	>50% reduction in seizures, Focal Seizures Leading to Secondary Generalised (n = 15) [2] [%]	proportion of patients with greater than 50% reduction of absence seizures (absence seizures) [%]	proportion of patients with greater than 50% reduction of myoclonic absence seizures [3] [%]	solubility in water [4]	prevention of seizures (seizures [5])	patients with marked reduction of seizures (generalized epilepsy)	patients who became seizure free (seizures [6])	control of seizures (seizures [7])	responder rate by OCE type (refractory epilepsy) [%]	effect on seizures (seizures [8])
C=C(C)[C@@H]1CCC(C)=C[C@H]1c1c(O)cc(CCCCC)cc1O [CBD, Cannabidiol]	54% (n = 74)	50	50	53	47	64	75	insoluble	able to prevent seizures	4	two of the four patients became seizure free	ineffective	35	–
CCCCCc1cc(O)c2c(c1)OC(C)(C)[C@@H]1CCC(C)=C[C@@H]21 [THC, Tetrahydrocannabinol]	–	–	–	–	–	–	–	–	–	–	–	–	–	pro-convulsant
